Counter-ions that a name gives are not always drawn.

The nature of the data set: in vitro. To be noted: human, hek293t cells.
Take `CC1(C)C(=O)Nc2ccc(C(=O)CCl)cc21` [10-N21, 5-(2-chloroacetyl)-3,3-dimethyl-2,3-dihydro-1H-indol-2-one]: the viability at 48 h, 25 µM was 73.1%.

As to `Cn1cc(C(=O)CCl)cc1C(=O)C(Cl)(Cl)Cl` [10-N22, 2,2,2-trichloro-1-[4-(2-chloroacetyl)-1-methyl-1H-pyrrol-2-yl]ethan-1-one], the viability at 48 h, 25 µM is 1.4%.

With `Cc1cc(C(=O)CCl)c(F)cc1F` [10-O03, 2-chloro-1-(2,4-difluoro-5-methylphenyl)ethan-1-one], the viability at 48 h, 25 µM stood at 2.01%. With `CC(Cl)C(=O)c1ccc(Cl)cc1` (centres unmarked) [10-O04, 2-chloro-1-(4-chlorophenyl)propan-1-one], the viability at 48 h, 25 µM was 106%. The figure for `CC(=O)NCCc1cc(C(=O)CCl)ccc1F` [10-O05, N-{2-[5-(2-chloroacetyl)-2-fluorophenyl]ethyl}acetamide] is 37.8%; for `CCCC(=O)Nc1ccc(C(=O)C(C)Cl)cc1` (centres unmarked) [10-O06, N-[4-(2-chloropropanoyl)phenyl]butanamide] it is 85.1%; for `O=C1C=CC(=O)N1c1cccc(O)c1` [10-O07, 1-(3-hydroxyphenyl)-2,5-dihydro-1H-pyrrole-2,5-dione] it is 68.4%. With `N#CC(C(=O)CCl)=C1Nc2cc(Cl)ccc2S1` [10-O08, 4-chloro-2-(5-chloro-2,3-dihydro-1,3-benzothiazol-2-ylidene)-3-oxobutanenitrile], the viability at 48 h, 25 µM was determined as 101%. As for `O=C(CCl)c1ccoc1` [10-O09, 2-chloro-1-(furan-3-yl)ethan-1-one], the viability at 48 h, 25 µM is 76.8%. Regarding `COc1ccccc1N1C(=O)C=CC1=O` [10-O10, 1-(2-methoxyphenyl)-2,5-dihydro-1H-pyrrole-2,5-dione], the viability at 48 h, 25 µM stood at 57.5%. As to `O=C(CCl)c1c[nH]c2ccc(F)cc12` [10-O11, 2-chloro-1-(5-fluoro-1H-indol-3-yl)ethan-1-one], the viability at 48 h, 25 µM came to 0.58%. For `CC(=O)Nc1ccc(C(=O)CCl)cc1` [10-O12, N-[4-(2-chloroacetyl)phenyl]acetamide], the viability at 48 h, 25 µM amounted to 12.6%. Next, `Cc1ccc(CC(=O)CCl)cc1` [10-O13, 1-chloro-3-(4-methylphenyl)propan-2-one]: 67.6%.

As for `Cc1ccc([N+](=O)[O-])cc1N1C(=O)C=CC1=O` [10-O14, 1-(2-methyl-5-nitrophenyl)-2,5-dihydro-1H-pyrrole-2,5-dione], the viability at 48 h, 25 µM worked out at 67.2%. For `O=C(CCl)Cc1c(F)cccc1F` [10-O15, 1-chloro-3-(2,6-difluorophenyl)propan-2-one], the viability at 48 h, 25 µM came to 95.8%. Take `Cc1cc(C(=O)CCl)c(C)n1CC(N)=O` [10-O16, 2-[3-(2-chloroacetyl)-2,5-dimethyl-1H-pyrrol-1-yl]acetamide]: the viability at 48 h, 25 µM amounted to 108%. `O=C(CCl)Cc1ccc(F)c(F)c1` [10-O17, 1-chloro-3-(3,4-difluorophenyl)propan-2-one]: the viability at 48 h, 25 µM was 28%.

With `Cc1nc(CNC(=O)N2CCSSCC2)cs1` [10-O18, N-[(2-methyl-1,3-thiazol-4-yl)methyl]-1,2,5-dithiazepane-5-carboxamide], the viability at 48 h, 25 µM amounted to 112%. The figure for `O=C1C=CC(=O)N1C1CNC1` [10-O19, 1-(azetidin-3-yl)-2,5-dihydro-1H-pyrrole-2,5-dione hydrochloride] is 83.3%.

Turning to `O=C1CCc2cc(C(=O)CCl)c(F)cc2N1` [10-O20, 6-(2-chloroacetyl)-7-fluoro-1,2,3,4-tetrahydroquinolin-2-one], the viability at 48 h, 25 µM was determined as 11.9%. `c1ccc(CSSCc2ccccc2)cc1` [10-O21, [(benzyldisulfanyl)methyl]benzene]: the viability at 48 h, 25 µM stood at 100%. The figure for `O=C(Nc1nccs1)N1CCSSCC1` [10-O22, N-(1,3-thiazol-2-yl)-1,2,5-dithiazepane-5-carboxamide] is 113%; for `CC(=O)NCCc1ccc(C(=O)CCl)s1` [10-P03, N-{2-[5-(2-chloroacetyl)thiophen-2-yl]ethyl}acetamide] it is 64.9%. In the case of `O=C(CCl)c1c(-c2ccc(F)cc2)[nH]c2ccccc12` [10-P04, 2-chloro-1-[2-(4-fluorophenyl)-1H-indol-3-yl]ethan-1-one], the viability at 48 h, 25 µM came out at 4.16%.

For the molecule `Cn1c(N)c(N2C(=O)C=CC2=O)c(=O)[nH]c1=O` [10-P05, 6-amino-5-(2,5-dioxo-2,5-dihydro-1H-pyrrol-1-yl)-1-methyl-1,2,3,4-tetrahydropyrimidine-2,4-dione], the viability at 48 h, 25 µM worked out at 124%. For the molecule `Nc1c(C(=O)CCl)c(=O)[nH]c(=O)n1C1CC1` [10-P06, 6-amino-5-(2-chloroacetyl)-1-cyclopropyl-1,2,3,4-tetrahydropyrimidine-2,4-dione], the viability at 48 h, 25 µM is 111%.

Regarding `O=C1C=CC(=O)N1c1cnccn1` [10-P07, 1-(pyrazin-2-yl)-2,5-dihydro-1H-pyrrole-2,5-dione], the viability at 48 h, 25 µM was determined as 103%. Next, `CCn1nc(C)c(C(=O)CCl)n1` [10-P08, 2-chloro-1-(2-ethyl-5-methyl-2H-1,2,3-triazol-4-yl)ethan-1-one]: 27.2%; `O=C(Nc1cccc(-c2nnco2)c1)N1CCSSCC1` [10-P09, N-[3-(1,3,4-oxadiazol-2-yl)phenyl]-1,2,5-dithiazepane-5-carboxamide]: 116%; `CC(C)(C)C(=O)NCc1ccc(C(=O)CCl)s1` [10-P10, N-{[5-(2-chloroacetyl)thiophen-2-yl]methyl}-2,2-dimethylpropanamide]: 12.3%.

Turning to `O=C1C=CC(=O)N1c1ccc(OC(F)F)cc1` [10-P11, 1-[4-(difluoromethoxy)phenyl]-2,5-dihydro-1H-pyrrole-2,5-dione], the viability at 48 h, 25 µM amounted to 102%. In the case of `CC(Cl)C(=O)c1ccc2c(c1)NC(=O)CO2` (centres unmarked) [10-P12, 6-(2-chloropropanoyl)-3,4-dihydro-2H-1,4-benzoxazin-3-one], the viability at 48 h, 25 µM was 105%.

Take `COc1ccc([N+](=O)[O-])cc1N1C(=O)C=CC1=O` [10-P13, 1-(2-methoxy-5-nitrophenyl)-2,5-dihydro-1H-pyrrole-2,5-dione]: the viability at 48 h, 25 µM came to 102%. As for `N#CC(C(=O)CCl)=C1NC(=O)c2ccccc2N1` [10-P14, 4-chloro-3-oxo-2-(4-oxo-1,2,3,4-tetrahydroquinazolin-2-ylidene)butanenitrile], the viability at 48 h, 25 µM came to 110%. `O=C1C=CC(=O)N1c1cccc([N+](=O)[O-])c1` [10-P15, 1-(3-nitrophenyl)-2,5-dihydro-1H-pyrrole-2,5-dione]: the viability at 48 h, 25 µM amounted to 92.8%. As for `Cc1cc(C(=O)CCl)c(C)n1Cc1ccccc1Cl` [10-P16, 2-chloro-1-{1-[(2-chlorophenyl)methyl]-2,5-dimethyl-1H-pyrrol-3-yl}ethan-1-one], the viability at 48 h, 25 µM came to 0.942%.

Turning to `Cc1cc(C(=O)CCl)c(C)n1C(C)c1ccccc1` (centres unmarked) [10-P17, 2-chloro-1-[2,5-dimethyl-1-(1-phenylethyl)-1H-pyrrol-3-yl]ethan-1-one], the viability at 48 h, 25 µM was 113%.

As for `CN1C(=C(C#N)C(=O)CCl)N(C)c2ccccc21` [10-P18, 4-chloro-2-(1,3-dimethyl-2,3-dihydro-1H-1,3-benzodiazol-2-ylidene)-3-oxobutanenitrile], the viability at 48 h, 25 µM is 89.4%.

The viability is a read-out of living cells in per cent, often relative to untreated cells.

The values are drawn from publication PMC11995724, “Antibiotic target discovery by integrated phenotypic and activity-based profiling of electrophilic fragments” (Cell chemical biology, 2025).
